Molecules are shown by their SMILES.

The subject of series [1] is HCT-116 cell line. The series can be described thus: Anti-proliferative activity, Alamar Blue assay. Type of series: cell-based, human. Particulars: for IC50: HCT-116 human colon carcinoma, 72 hours, read-out: HCT-116 cell proliferation IC50. The procedure: The anti-proliferative activities of compounds of the invention can be determined by measuring the ability of the compounds to inhibition of cell growth in a number of cell lines. […] The method is based on the ability of viable cells to reduce resazurin to its fluorescent product resorufin. For each proliferation assay cells are plated onto 96 well plates and allowed to recover for 16 hours prior to the addition of inhibitor compounds for a further 72 hours. […] In the case of the non-proliferating cell assay cells are maintained at confluence for 96 hour prior to the addition of inhibitor compounds for a further 72 hours. The number of viable cells is determined by Alamar Blue assay as before. Cell lines can be obtained from the ECACC (European Collection of cell Cultures).
In general terms: Resazurin is reduced to fluorescent resorufin, in cell work by metabolically active cells.

Series [2] has as its system human tumour derived cell lines. Nature of the series: Xenograft studies, human tumour derived cell lines implanted sub-cutaneously. The class given is in vivo, nude mice. To be noted: dosed orally. From the text: These biomarkers include suppression of phosphorylation of substrates of the cyclin dependent kinases e.g. retinoblastoma protein.
(In general: Xenograft models place foreign cells or tissue in a host animal.)

Series [3] deals with Activated CDK2/CyclinA (Homo sapiens, UniProt P24941). Nature of the series: Activated CDK2/CyclinA kinase inhibitory activity assay. Type of series: biochemical. The procedure:
Compounds of the invention were tested for kinase inhibitory activity using the following protocol.
The reaction is allowed to proceed for 2 to 4 hours before being stopped with an excess of ortho-phosphoric acid (5 μl at 2%). γ^33P-ATP which remains unincorporated into the histone H1 is separated from phosphorylated histone H1 on a Millipore MAPH filter plate. The wells of the MAPH plate are wetted with 0.5% orthophosphoric acid, and then the results of the reaction are filtered with a Millipore vacuum filtration unit through the wells. Following filtration, the residue is washed twice with 200 μl of 0.5% orthophosphoric acid. Once the filters have dried, 20 μl of Microscint 20 scintillant is added, and then counted on a Packard Topcount for 30 seconds.

Series [4] is described as follows: Determination of oral bioavailability. Particulars: BALB/c, mouse, plasma, mice, 5 mg/kg PO vs 1 mg/kg IV. The class given is in vivo. How it is done:
The oral bioavailability of the compounds of formula (I) may be determined as follows.
The test compound is administered as a solution both I.V. and orally to balb/c mice at the following dose level and dose formulations; • 1 mg/kg IV formulated in 10% DMSO/90% (2-hydroxypropyl)-β-cyclodextrin (25% w/v); and • 5 mg/kg PO formulated in 10% DMSO/20% water/70% PEG200.
At various time points after dosing, blood samples are taken in heparinised tubes and the plasma fraction is collected for analysis. The analysis is undertaken by LC-MS/MS after protein precipitation and the samples are quantified by comparison with a standard calibration line constructed for the test compound. The area under the curve (AUC) is calculated from the plasma level vs time profile by standard methods. The oral bioavailability as a percentage is calculated from the following equation: […]

For series [5], the target named is T1, GSK3-β (Homo sapiens, UniProt P49841).
T1 construct: purchased Upstate Discovery
T1 sequence (P49841 whole entry): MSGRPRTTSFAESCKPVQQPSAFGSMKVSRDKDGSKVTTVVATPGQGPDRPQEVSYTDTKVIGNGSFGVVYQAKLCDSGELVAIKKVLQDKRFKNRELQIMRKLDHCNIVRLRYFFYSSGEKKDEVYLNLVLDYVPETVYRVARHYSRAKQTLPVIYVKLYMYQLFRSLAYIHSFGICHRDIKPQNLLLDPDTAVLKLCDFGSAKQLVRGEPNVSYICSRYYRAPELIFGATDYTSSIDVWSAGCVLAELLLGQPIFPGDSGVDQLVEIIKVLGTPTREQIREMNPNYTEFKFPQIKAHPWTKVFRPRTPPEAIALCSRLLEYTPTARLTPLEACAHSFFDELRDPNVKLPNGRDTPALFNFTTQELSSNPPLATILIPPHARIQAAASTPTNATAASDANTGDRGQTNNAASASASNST
The series can be described thus: GSK3-B kinase inhibitory activity assay. Type of series: biochemical. To be noted: read-out: GSK3β IC50. The procedure: The reaction is allowed to proceed for 3 hours (GSK3-β) before being stopped with an excess of ortho-phosphoric acid (5 μl at 2%). The filtration procedure is as for Activated CDK2/CyclinA assay above.

`CS(=O)(=O)N1CCC(NC(=O)c2n[nH]cc2NC(=O)c2c(Cl)cccc2Cl)CC1` [Example 1, 4-(2,6-dichloro-benzoylamino)-1H-pyrazole-3-carboxylic acid (1-methanesulphonyl-piperidin-4-yl)-amide]: the IC50 in series [1] came to 110 nM. In series [1] (human colon cancer HCT-116 cell line), the “anti-proliferative potency on HCT-116 compared to difluoro-analogue” value is listed as 6-7 fold. For the same compound, in series [2] (nude mice xenografts), the “tumour biomarkers (phosphorylation of CDK substrates e.g. retinoblastoma protein)” value is given as “inhibition of the tumour biomarkers”. Moreover, the “tumour growth in xenografts” value in series [2] (nude mice, sub-cutaneous xenografts) is listed as “inhibition of tumour growth”. For the same compound, the “in vitro kinase (CDK2) inhibitory activity compared to difluoro-analogue” value in series [3] is “greater in vitro kinase (CDK2) inhibitory activity”. This compound also had a bioavailability in series [4] of 40 to 50%.
Consider `CS(=O)(=O)N1CCC(NC(=O)c2n[nH]cc2NC(=O)c2c(F)cccc2F)CC1` [Example 131 of PCT/GB2004/003179], for which the IC50 in series [1] worked out at 740 nM; in series [3], 2.2 nM; in series [5], 14 nM. The “selectivity for CDK inhibition over GSK3β” value in series [3] is listed as about 6 fold.

The term bioavailability denotes the share of a dose that reaches the circulation, judged against a reference dose that is usually intravenous. A lower bioavailability goes with little systemic uptake.

The values above are taken from US20080139620A1, “Pyrazole Derivatives For The Inhibition Of Cdk's And Gsk's” (ASTEX THERAPEUTICS LIMITED, priority 2005, published 2008).
